Reference: article PMC10382935 (The Cell Surface, 2023)

Molecular target: T1, CRD DC-SIGN (carbohydrate recognition domain of DC-SIGN, 15N labelled) (Homo sapiens, UniProt Q9NNX6)
T1 sequence (Q9NNX6 250-404 limits assumed): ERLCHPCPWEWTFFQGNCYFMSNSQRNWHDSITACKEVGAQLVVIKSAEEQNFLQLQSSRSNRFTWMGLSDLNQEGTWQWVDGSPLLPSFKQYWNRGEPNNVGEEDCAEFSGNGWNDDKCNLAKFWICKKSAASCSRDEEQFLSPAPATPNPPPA
Assay: 1H, […]-HSQC NMR titration
Format: binding

Compound NCCCO[C@H]1O[C@H](CO)[C@@H](O)[C@H](O)[C@@H]1O[C@H]1O[C@H](CO)[C@@H](O)[C@H](O)[C@@H]1O[C@H]1O[C@H](CO)[C@@H](O)[C@H](O[C@H]2O[C@H](CO)[C@@H](O)[C@H](O)[C@@H]2O[C@H]2O[C@H](CO)[C@@H](O)[C@H](O)[C@@H]2O)[C@@H]1O [compound 29, pentasaccharide 29] has a Kd of about 600 µM.
NCCCO[C@H]1O[C@H](CO)[C@@H](O)[C@H](O)[C@@H]1O[C@H]1O[C@H](CO)[C@@H](O)[C@H](O)[C@@H]1O[C@H]1O[C@H](CO)[C@@H](O)[C@H](O)[C@@H]1O[C@H]1O[C@H](CO)[C@@H](O)[C@H](O[C@H]2O[C@H](CO)[C@@H](O)[C@H](O)[C@@H]2O[C@H]2O[C@H](CO)[C@@H](O)[C@H](O)[C@@H]2O)[C@@H]1O [compound 30, hexasaccharide 30] gave a Kd of about 1100 µM.
